Experimental data taken from ChEMBL document CHEMBL1629538 (J Med Chem, 2010).
Calls of active or inactive are those of the source. The rule behind the calls is not given here. Bridge positions count the residues as written; N and C are the ends. Peptide text beside a SMILES is read from it. * marks the point of attachment. Bz = O=C(c1ccccc1)*

Assays:
[1] = Cytotoxicity in human erythrocytes assessed as induction of hemolysis at 100 uM; type: cell-based; conditions: erythrocyte
[2] = Half life in human serum; type: ADME, cell-free
Nociceptin receptor [3] = molecular target: T1, Nociceptin receptor (Mus musculus, UniProt P35377); assay: Antagonist activity at NOR in mouse Neuro-2a cells assessed as inhibition of nociceptin-induced ERK phosphorylation administered for 15 mins before nociceptin challenge by Alphascreen Surefire assay; type: functional, cell-based
T1 sequence (P35377 whole entry): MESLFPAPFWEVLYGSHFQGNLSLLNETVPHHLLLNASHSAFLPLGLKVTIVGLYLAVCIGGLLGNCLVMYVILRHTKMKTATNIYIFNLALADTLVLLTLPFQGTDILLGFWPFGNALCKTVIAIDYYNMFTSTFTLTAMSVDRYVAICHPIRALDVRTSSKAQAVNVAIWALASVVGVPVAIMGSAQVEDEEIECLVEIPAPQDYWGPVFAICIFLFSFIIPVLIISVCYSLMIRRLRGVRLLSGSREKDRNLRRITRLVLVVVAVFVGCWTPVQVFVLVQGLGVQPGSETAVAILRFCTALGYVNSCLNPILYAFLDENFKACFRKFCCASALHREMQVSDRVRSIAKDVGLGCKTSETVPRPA

[4] = molecular target: Nociceptin receptor (Mus musculus) (UniProt P35377); assay: Agonist activity at NOR in mouse Neuro-2a cells assessed as stimulation of ERK phosphorylation at 1 uM after 35 mins post dose by Alphascreen Surefire assay
Sequence of Nociceptin receptor (Mus musculus) (P35377 whole entry): as above

[5] = molecular target: Nociceptin receptor (Mus musculus) (UniProt P35377); assay: Agonist activity at NOR in mouse Neuro-2a cells assessed as stimulation of ERK phosphorylation after 35 mins post dose by Alphascreen Surefire assay relative to control
Nociceptin receptor [6] = molecular target: T1, Nociceptin receptor; assay: Agonist activity at NOR in mouse Neuro-2a cells assessed as stimulation of ERK phosphorylation after 35 mins post dose by Alphascreen Surefire assay
[7] = molecular target: Nociceptin receptor (Mus musculus) (UniProt P35377); assay: Antagonist activity at NOR in mouse Neuro-2a cells assessed as inhibition of nociceptin-induced ERK phosphorylation at 100 nM administered for 15 mins before nociceptin challenge by Alphascreen Surefire assay; type: functional, cell-based
Nociceptin receptor [8] = molecular target: T1, Nociceptin receptor; assay: Antagonist activity at NOR in mouse Neuro-2a cells assessed as inhibition of nociceptin-induced ERK phosphorylation administered for 15 mins before nociceptin challenge by competitive inhibition assay; type: functional, cell-based; conditions: read-out: pA2 (converted)

Which Activity [1] does the source give for `C[C@@H]1NC(=O)[C@@H](NC(=O)[C@H](CCCCN)NC(=O)[C@H](CCCN=C(N)N)NC(=O)[C@@H]2CC(=O)NCCCC[C@H](NC(=O)CNC(=O)[C@@H](NC(=O)[C@H](Cc3ccccc3)NC(=O)CNC(=O)CNC(=O)[C@@H](N)Cc3ccccc3)[C@@H](C)O)C(=O)N[C@@H](CCCN=C(N)N)C(=O)N[C@@H](CCCCN)C(=O)N[C@@H](CO)C(=O)N2)CCCCNC(=O)C[C@@H](C(N)=O)NC(=O)[C@H](CCC(N)=O)NC(=O)[C@H](CC(N)=O)NC1=O` here?
Its Activity is “Non-toxic”.

What about the half-life [2] of the same compound?
Its half-life is > 6 h.

Which IC50 (Nociceptin receptor [3]; read-out: pIC50 (converted)) does the source give for `CC(C)C[C@@H]1NC(=O)[C@H](CCCCN)NC(=O)[C@H](CCCN=C(N)N)NC(=O)[C@@H](NC(=O)[C@@H]2CC(=O)NCCCC[C@H](NC(=O)[C@@H](NC(=O)[C@H](Cc3ccccc3)NC(=O)CNC(=O)CNC(=O)CNC(=O)c3ccccc3)[C@@H](C)O)C(=O)N[C@@H](C)C(=O)N[C@@H](CCCN=C(N)N)C(=O)N[C@@H](CCCCN)C(=O)N2)CCCCNC(=O)C[C@@H](C(N)=O)NC1=O` (Bz-GGGFTKARKDKRKLD-NH2; lactam 6-10, 11-15) here?
The IC50 was > 100 nM.

For `C[C@@H](O)[C@H](NC(=O)[C@H](Cc1ccccc1)NC(=O)CNC(=O)CNC(=O)CNC(=O)c1ccccc1)C(=O)NCC(=O)N[C@H]1CCCCNC(=O)C[C@@H](C(=O)N[C@@H](CCCN=C(N)N)C(=O)N[C@@H](CCCCN)C(=O)N[C@H]2CCCCNC(=O)C[C@@H](C(N)=O)NC(=O)[C@H](CCC(N)=O)NC(=O)[C@H](CC(N)=O)NC(=O)[C@H](CCCCN)NC2=O)NC(=O)[C@H](CO)NC(=O)[C@H](CCCCN)NC(=O)[C@H](CCCN=C(N)N)NC1=O` (Bz-GGGFTGKRKSDRKKKNQD-NH2; lactam 7-11, 14-18), which IC50 (Nociceptin receptor [3]; read-out: IC50) is on record?
The IC50 was 12 nM.

With `CC(C)C[C@H](NC(=O)[C@H](CCCCN)NC(=O)[C@H](CCCN=C(N)N)NC(=O)[C@H](C)NC(=O)[C@H](CO)NC(=O)[C@H](CCCCN)NC(=O)[C@H](CCCN=C(N)N)NC(=O)[C@H](C)NC(=O)CNC(=O)[C@@H](NC(=O)[C@H](Cc1ccccc1)NC(=O)CNC(=O)CNC(=O)[C@@H](N)Cc1ccccc1)[C@@H](C)O)C(=O)N[C@@H](C)C(=O)N[C@@H](CC(N)=O)C(=O)N[C@@H](CCC(N)=O)C(=O)O` [NOCICEPTIN] as the compound, how does the Activity [1] read?
Its Activity is “Non-toxic”.

What about the half-life [2] of the same compound?
Its half-life is 1 h.

For `CC(C)C[C@H](NC(=O)[C@H](CCCCN)NC(=O)[C@H](CCCNC(=N)N)NC(=O)[C@H](C)NC(=O)[C@H](CO)NC(=O)[C@H](CCCCN)NC(=O)[C@H](CCCNC(=N)N)NC(=O)[C@H](C)NC(=O)CNC(=O)[C@@H](NC(=O)[C@H](Cc1ccc(F)cc1)NC(=O)CNC(=O)CNC(=O)CNC(=O)c1ccccc1)[C@@H](C)O)C(=O)N[C@@H](CCCCN)C(=O)N[C@@H](CC(N)=O)C(=O)N[C@@H](CCC(N)=O)C(N)=O`, which Activity [4] is on record?
Its Activity is “inactive”.

With `C[C@@H](O)[C@H](NC(=O)[C@H](Cc1ccccc1)NC(=O)CNC(=O)CNC(=O)[C@@H](N)Cc1ccccc1)C(=O)NCC(=O)N[C@H]1CCCCNC(=O)C[C@@H](C(N)=O)NC(=O)[C@H](CCCCN)NC(=O)[C@H](CCCNC(=N)N)NC(=O)[C@@H]2CC(=O)NCCCC[C@@H](CC(=O)[C@H](CCCCN)NC(=O)[C@H](CCCNC(=N)N)NC1=O)C(=O)N2` as the compound, how does the Emax [5] read?
Its Emax is 92%.

For `CC(=O)N[C@H](C(=O)N[C@H]1CCCCNC(=O)C[C@@H](C(=O)N[C@H]2CCCCNC(=O)C[C@@H](C(N)=O)NC(=O)[C@H](CC(C)C)NC(=O)[C@H](CCCCN)NC(=O)[C@H](CCCN=C(N)N)NC2=O)NC(=O)[C@H](CCCCN)NC(=O)[C@H](CCCN=C(N)N)NC(=O)[C@H](C)NC1=O)[C@@H](C)O` (Ac-TKARKDKRKLD-NH2; lactam 2-6, 7-11), which IC50 (Nociceptin receptor [3]; read-out: pIC50 (converted)) is on record?
Its IC50 is > 100 nM.

For `CC(C)C[C@H](NC(=O)[C@H](CCCCN)NC(=O)[C@H](CCCN=C(N)N)NC(=O)[C@H](C)NC(=O)[C@H](CO)NC(=O)[C@H](CCCCN)NC(=O)[C@H](CCCN=C(N)N)NC(=O)[C@H](C)NC(=O)CNC(=O)[C@@H](NC(=O)[C@H](Cc1ccc(F)cc1)NC(=O)CNC(=O)CNC(=O)[C@@H](N)Cc1ccccc1)[C@@H](C)O)C(=O)N[C@@H](CCCCN)C(=O)N[C@@H](CC(N)=O)C(=O)N[C@@H](CCC(N)=O)C(N)=O`, which EC50 (Nociceptin receptor [6]) is on record?
Its EC50 is 0.36 nM.

For `CC(C)C[C@H](NC(=O)[C@H](CCCCN)NC(=O)[C@H](CCCN=C(N)N)NC(=O)[C@H](C)NC(=O)[C@H](CO)NC(=O)[C@H](CCCCN)NC(=O)[C@H](CCCN=C(N)N)NC(=O)[C@H](C)NC(=O)CNC(=O)[C@@H](NC(=O)[C@H](Cc1ccc(F)cc1)NC(=O)CNC(=O)CNC(=O)CNCc1ccccc1)[C@@H](C)O)C(=O)N[C@@H](CCCCN)C(=O)N[C@@H](CC(N)=O)C(=O)N[C@@H](CCC(N)=O)C(N)=O`, which pIC50 (Nociceptin receptor [3]; neuro-2a) is on record?
Its pIC50 is 7.49.

With `C[C@H](NC(=O)CNC(=O)[C@@H](NC(=O)[C@H](Cc1ccccc1)NC(=O)CNC(=O)CNC(=O)[C@@H](N)Cc1ccccc1)[C@@H](C)O)C(=O)N[C@@H](CCCNC(=N)N)C(=O)N[C@@H](CCCCN)C(=O)N[C@@H](CO)C(=O)N[C@@H](C)C(=O)N[C@@H](CCCNC(=N)N)C(=O)N[C@@H](CCCCN)C(N)=O` as the compound, how does the Emax [5] read?
Its Emax is 90%.

For `C[C@@H](O)[C@H](NC(=O)[C@H](Cc1ccccc1)NC(=O)CNC(=O)CNC(=O)[C@@H](N)Cc1ccccc1)C(=O)NCC(=O)N[C@H]1CCCCNC(=O)C[C@@H](C(=O)N[C@@H](CCCNC(=N)N)C(=O)N[C@@H](CCCCN)C(N)=O)NC(=O)[C@H](CO)NC(=O)[C@H](CCCCN)NC(=O)[C@H](CCCNC(=N)N)NC1=O` (H-FGGFTGKRKSDRK-NH2; lactam 7-11), which Emax [5] is on record?
The Emax was 80%.

With `CC(=O)N[C@H](C(=O)N[C@H]1CCCCNC(=O)C[C@@H](C(=O)N[C@H]2CCCCNC(=O)C[C@@H](C(N)=O)NC(=O)[C@H](CC(C)C)NC(=O)[C@H](CCCCN)NC(=O)[C@H](CCCNC(=N)N)NC2=O)NC(=O)[C@H](CCCCN)NC(=O)[C@H](CCCNC(=N)N)NC(=O)[C@H](C)NC1=O)[C@@H](C)O` (Ac-TKARKDKRKLD-NH2; lactam 2-6, 7-11) as the compound, how does the inhibition [7] read?
Its inhibition is “inactive”.

With `C[C@@H](O)[C@H](NC(=O)[C@H](Cc1ccc(F)cc1)NC(=O)CNC(=O)CNC(=O)CNC(=O)c1ccccc1)C(=O)NCC(=O)N[C@H]1CCCCNC(=O)C[C@@H](C(=O)N[C@@H](CCCN=C(N)N)C(=O)N[C@@H](CCCCN)C(=O)N[C@H]2CCCCNC(=O)C[C@@H](C(N)=O)NC(=O)[C@H](CCC(N)=O)NC(=O)[C@H](CC(N)=O)NC(=O)[C@H](CCCCN)NC2=O)NC(=O)[C@H](CO)NC(=O)[C@H](CCCCN)NC(=O)[C@H](CCCN=C(N)N)NC1=O` as the compound, how does the Kb (Nociceptin receptor [8]) read?
Its Kb is 1.95 nM.

What about the IC50 (Nociceptin receptor [3]; read-out: IC50) of the same compound?
The IC50 was 7.5 nM.

With `C[C@@H](O)[C@H](NC(=O)[C@H](Cc1ccccc1)NC(=O)CNC(=O)CNC(=O)[C@@H](N)Cc1ccccc1)C(=O)NCC(=O)N[C@H]1CCCCNC(=O)C[C@@H](C(=O)N[C@@H](CCCN=C(N)N)C(=O)N[C@@H](CCCCN)C(N)=O)NC(=O)[C@H](CO)NC(=O)[C@H](CCCCN)NC(=O)[C@H](CCCN=C(N)N)NC1=O` (H-FGGFTGKRKSDRK-NH2; lactam 7-11) as the compound, how does the EC50 (Nociceptin receptor [6]) read?
The EC50 was 30 nM.

For `C[C@@H](O)[C@H](NC(=O)[C@H](Cc1ccccc1)NC(=O)CNC(=O)CNC(=O)[C@@H](N)Cc1ccccc1)C(=O)NCC(=O)N[C@H]1CCCCNC(=O)C[C@@H](C(N)=O)NC(=O)[C@H](CCCCN)NC(=O)[C@H](CCCN=C(N)N)NC(=O)[C@@H]2CC(=O)NCCCC[C@@H](CC(=O)[C@H](CCCCN)NC(=O)[C@H](CCCN=C(N)N)NC1=O)C(=O)N2`, which EC50 (Nociceptin receptor [6]) is on record?
The EC50 was 14 nM.

Which Activity [4] does the source give for `C[C@@H](O)[C@H](NC(=O)[C@H](Cc1ccc(F)cc1)NC(=O)CNC(=O)CNC(=O)CNC(=O)c1ccccc1)C(=O)NCC(=O)N[C@H]1CCCCNC(=O)C[C@@H](C(=O)N[C@@H](CCCNC(=N)N)C(=O)N[C@@H](CCCCN)C(=O)N[C@H]2CCCCNC(=O)C[C@@H](C(N)=O)NC(=O)[C@H](CCC(N)=O)NC(=O)[C@H](CC(N)=O)NC(=O)[C@H](CCCCN)NC2=O)NC(=O)[C@H](CO)NC(=O)[C@H](CCCCN)NC(=O)[C@H](CCCNC(=N)N)NC1=O` here?
The Activity was “inactive”.

For `CC(C)C[C@@H]1NC(=O)[C@H](CCCCN)NC(=O)[C@H](CCCNC(=N)N)NC(=O)[C@@H](NC(=O)[C@@H]2CC(=O)NCCCC[C@H](NC(=O)[C@@H](NC(=O)[C@H](Cc3ccccc3)NC(=O)CNC(=O)CNC(=O)CNC(=O)c3ccccc3)[C@@H](C)O)C(=O)N[C@@H](C)C(=O)N[C@@H](CCCNC(=N)N)C(=O)N[C@@H](CCCCN)C(=O)N2)CCCCNC(=O)C[C@@H](C(N)=O)NC1=O` (Bz-GGGFTKARKDKRKLD-NH2; lactam 6-10, 11-15), which inhibition [7] is on record?
Its inhibition is “inactive”.

Which results are given for `C[C@@H](O)[C@H](NC(=O)[C@H](Cc1ccc(F)cc1)NC(=O)CNC(=O)CNC(=O)[C@@H](N)Cc1ccccc1)C(=O)NCC(=O)N[C@H]1CCCCNC(=O)C[C@@H](C(=O)N[C@@H](CCCN=C(N)N)C(=O)N[C@@H](CCCCN)C(=O)N[C@H]2CCCCNC(=O)C[C@@H](C(N)=O)NC(=O)[C@H](CCC(N)=O)NC(=O)[C@H](CC(N)=O)NC(=O)[C@H](CCCCN)NC2=O)NC(=O)[C@H](CO)NC(=O)[C@H](CCCCN)NC(=O)[C@H](CCCN=C(N)N)NC1=O`?
EC50 (Nociceptin receptor [6]): 0.04 nM; EC50 (Nociceptin receptor [6]; neuro-2a): 0.04 nM
